In US20090304766A1, “LOCALIZED DELIVERY OF DRUG COMBINATIONS” (priority 2005, published 2009):

Assay: in vitro combination dose-effect analysis (cytotoxicity, Chou-Talalay combination index)
Type: cell-based
Conditions: FIG. 2D; single agent compared with combination
Method: By way of illustration, individual agents and various combinations thereof are tested for their biological effect on cell culture or a cell-free system, for example causing cell death or inhibiting cell growth, at various concentration levels. The concentration levels of the preset ratios are plotted against the percentage cell survival to obtain a correlation which can be manipulated by known and established mathematical techniques to calculate a “combination index” (CI). The mathematics are such that a CI of 1 (i.e., 0.9-1.1) describes an additive effect of the drugs; a CI>1 (i.e., >1.1) represents an antagonist effect; and a CI of <1 (i.e., <0.9) represents a synergistic effect.
As shown, agents A and B are tested individually and together at two different ratios for their ability to cause cell death or cell stasis as assessed by the MTT assay described below. Initially, correlations between the concentration of drugs A, B, and the two different combination ratios (Y:Z and X:Y) are plotted against cytotoxicity, calculated as a percentage based on the survival of untreated control cells. […] Once this correlation has been established, the cell survival or fraction affected (fa) can be used as a surrogate for concentration in calculating the CI. […]

Row | SMILES | concentration required to achieve a 90% cell kill on its own versus when combined at a non-antagonistic ratio
1 | N.N.O=C([O-])C1(C(=O)[O-])CCC1.[Pt+2] [carboplatin] | significantly higher
2 | CCc1c2c(nc3ccc(OC(=O)N4CCC(N5CCCCC5)CC4)cc13)-c1cc3c(c(=O)n1C2)COC(=O)[C@]3(O)CC [irinotecan] | significantly higher
